# Columns and labels:
# Type in all cases: functional
# [1] = test system: HOP-62; assay: Growth inhibition of human HOP62 cells assessed as cell growth at 10^-7 M after 48 hrs by sulforhodamine B assay; conditions: HOP-62, 48 h, read-out: Activity
# [2] = test system: SK-MEL-2; assay: Growth inhibition of human SK-MEL-2 cells assessed as cell growth at 10^-8 M after 48 hrs by sulforhodamine B assay; conditions: SK-MEL-2, 48 h; for growth at 0.01 µM: read-out: Activity; for TGI: read-out: pTGI (converted)
# [3] = test system: Malme-3M; assay: Growth inhibition of human MALME-3M cells after 48 hrs by sulforhodamine B assay; conditions: for CC50: read-out: LC50 (the source's name)
# [4] = test system: SNB-75; assay: Growth inhibition of human SNB75 cells assessed as cell growth at 10^-6 M after 48 hrs by sulforhodamine B assay; conditions: SNB-75, 48 h, read-out: Activity
# [5] = test system: SK-MEL-2; assay: Growth inhibition of human SK-MEL-2 cells assessed as cell growth at 10^-7 M after 48 hrs by sulforhodamine B assay; conditions: SK-MEL-2, 48 h, read-out: Activity
# [6] = test system: MDA-MB-468; assay: Growth inhibition of human MDA-MB-468 cells after 48 hrs by sulforhodamine B assay; conditions: MDA-MB-468, 48 h; for CC50: read-out: LC50 (the source's name)
# [7] = test system: SF-268; assay: Growth inhibition of human SF268 cells assessed as cell growth at 10^-7 M after 48 hrs by sulforhodamine B assay; conditions: SF-268, 48 h, read-out: Activity
# [8] = test system: K562; assay: Growth inhibition of human K562 cells assessed as cell growth at 10^-6 M after 48 hrs by sulforhodamine B assay; conditions: K562, 48 h, read-out: Activity
# [9] = Growth inhibition of human UO31 cells assessed as cell growth at 10^-8 M after 48 hrs by sulforhodamine B assay; conditions: UO-31, 48 h; for growth at 0.01 µM: read-out: Activity; for TGI: read-out: pTGI (converted)
# [10] = test system: DU-145; assay: Growth inhibition of human DU145 cells assessed as cell growth at 10^-8 M after 48 hrs by sulforhodamine B assay; conditions: DU-145, 48 h; for growth at 0.01 µM: read-out: Activity; for TGI: read-out: pTGI (converted)
# [11] = test system: SN12C; assay: Growth inhibition of human SN12C cells assessed as cell growth at 10^-8 M after 48 hrs by sulforhodamine B assay; conditions: for growth at 0.01 µM: read-out: Activity; for TGI: read-out: pTGI (converted)
# [12] = Growth inhibition of human NCI-ADR-RES cells assessed as cell growth at 10^-4 M after 48 hrs by sulforhodamine B assay; conditions: read-out: Activity
# [13] = test system: NCI-H226; assay: Growth inhibition of human NCI-H226 cells after 48 hrs by sulforhodamine B assay; conditions: NCI-H226, 48 h; for CC50: read-out: LC50 (the source's name)
# [14] = test system: SNB-75; assay: Growth inhibition of human SNB75 cells assessed as cell growth at 10^-7 M after 48 hrs by sulforhodamine B assay; conditions: SNB-75, 48 h, read-out: Activity
# [15] = test system: 786-0; assay: Growth inhibition of human 786-0 cells assessed as cell growth at 10^-8 M after 48 hrs by sulforhodamine B assay; conditions: 786-0, 48 h; for growth at 0.01 µM: read-out: Activity; for TGI: read-out: pTGI (converted)
# [16] = test system: U-251; assay: Growth inhibition of human U251 cells assessed as cell growth at 10^-4 M after 48 hrs by sulforhodamine B assay; conditions: U-251, 48 h, read-out: Activity
# [17] = test system: 786-0; assay: Growth inhibition of human 786-0 cells assessed as cell growth at 10^-6 M after 48 hrs by sulforhodamine B assay; conditions: 786-0, 48 h, read-out: Activity
# [18] = Growth inhibition of human RXF393 cells assessed as cell growth at 10^-6 M after 48 hrs by sulforhodamine B assay; conditions: RXF 393, 48 h, read-out: Activity
# [19] = test system: SK-MEL-2; assay: Growth inhibition of human SK-MEL-2 cells after 48 hrs by sulforhodamine B assay; conditions: SK-MEL-2, 48 h; for CC50: read-out: LC50 (the source's name)
# [20] = test system: SF-268; assay: Growth inhibition of human SF268 cells assessed as cell growth at 10^-8 M after 48 hrs by sulforhodamine B assay; conditions: SF-268, 48 h; for growth at 0.01 µM: read-out: Activity; for TGI: read-out: pTGI (converted)
# [21] = test system: HT-29; assay: Growth inhibition of human HT-29 cells assessed as cell growth at 10^-7 M after 48 hrs by sulforhodamine B assay; conditions: HT-29, 48 h, read-out: Activity
# [22] = Growth inhibition of human UACC257 cells assessed as cell growth at 10^-8 M after 48 hrs by sulforhodamine B assay; conditions: UACC-257, 48 h; for growth at 0.01 µM: read-out: Activity; for TGI: read-out: pTGI (converted)
# [23] = test system: A549; assay: Growth inhibition of human A549/ATCC cells assessed as cell growth at 10^-8 M after 48 hrs by sulforhodamine B assay; conditions: A549, 48 h; for growth at 0.01 µM: read-out: Activity; for TGI: read-out: pTGI (converted)
# [24] = test system: SW-620; assay: Growth inhibition of human SW620 cells assessed as cell growth at 10^-6 M after 48 hrs by sulforhodamine B assay; conditions: SW-620, 48 h, read-out: Activity
# [25] = Growth inhibition of human UACC257 cells assessed as cell growth at 10^-5 M after 48 hrs by sulforhodamine B assay; conditions: UACC-257, 48 h, read-out: Activity
# [26] = test system: 786-0; assay: Growth inhibition of human 786-0 cells assessed as cell growth at 10^-4 M after 48 hrs by sulforhodamine B assay; conditions: 786-0, 48 h, read-out: Activity
# [27] = Growth inhibition of human HCT15 cells assessed as cell growth at 10^-6 M after 48 hrs by sulforhodamine B assay; conditions: HCT-15, 48 h, read-out: Activity
# [28] = Growth inhibition of human OVCAR5 cells assessed as cell growth at 10^-6 M after 48 hrs by sulforhodamine B assay; conditions: OVCAR-5, 48 h, read-out: Activity
# [29] = Growth inhibition of human MOLT4 cells after 48 hrs by sulforhodamine B assay; conditions: MOLT-4, 48 h; for CC50: read-out: LC50 (the source's name)
# [30] = Growth inhibition of human RXF393 cells assessed as cell growth at 10^-8 M after 48 hrs by sulforhodamine B assay; conditions: RXF 393, 48 h; for growth at 0.01 µM: read-out: Activity; for CC50: read-out: pLC50 (the source's name) (converted); for TGI: read-out: pTGI (converted)
# [31] = test system: SK-MEL-2; assay: Growth inhibition of human SK-MEL-2 cells assessed as cell growth at 10^-4 M after 48 hrs by sulforhodamine B assay; conditions: SK-MEL-2, 48 h, read-out: Activity
# [32] = test system: A549; assay: Growth inhibition of human A549/ATCC cells assessed as cell growth at 10^-6 M after 48 hrs by sulforhodamine B assay; conditions: A549, 48 h, read-out: Activity
smiles,measurement,setting,value
O=C1/C(=C/c2ccc(Cl)cc2Cl)CN(S(=O)(=O)c2ccccc2)C/C1=C\c1ccc(Cl)cc1Cl,growth at 0.1 µM,[1],113%
same,GI50,[2],6.03 µM
same,LC50,[2],> 100 µM
same,growth at 0.01 µM,[2],101%
same,TGI,[2],> 100 µM
same,GI50,[3],3.21 µM
same,CC50,[3],> 100 µM
same,growth at 1 µM,[4],38%
same,growth at 0.1 µM,[5],111%
same,GI50,[6],1.13 µM
same,TGI,[6],3.89 µM
same,CC50,[6],> 100 µM
same,growth at 0.1 µM,[7],98%
same,growth at 1 µM,[8],8%
same,GI50,[9],0.234 µM
same,LC50,[9],4.79 µM
same,growth at 0.01 µM,[9],88%
same,TGI,[9],0.646 µM
same,GI50,[10],0.447 µM
same,LC50,[10],> 100 µM
same,growth at 0.01 µM,[10],106%
same,TGI,[10],18.6 µM
same,GI50,[11],0.245 µM
same,LC50,[11],> 100 µM
same,growth at 0.01 µM,[11],93%
same,TGI,[11],0.724 µM
same,growth at 100 µM,[12],21%
same,GI50,[13],1.04 µM
same,TGI,[13],2.87 µM
same,CC50,[13],7.92 µM
same,growth at 0.1 µM,[14],71%
same,GI50,[15],0.24 µM
same,LC50,[15],1.7 µM
same,growth at 0.01 µM,[15],101%
same,TGI,[15],0.55 µM
same,growth at 100 µM,[16],-63%
same,growth at 1 µM,[17],-37%
same,growth at 1 µM,[18],54%
same,GI50,[19],6.01 µM
same,TGI,[19],> 100 µM
same,CC50,[19],> 100 µM
same,GI50,[20],0.447 µM
same,LC50,[20],> 100 µM
same,growth at 0.01 µM,[20],99%
same,TGI,[20],> 100 µM
same,growth at 0.1 µM,[21],101%
same,GI50,[22],4.07 µM
same,LC50,[22],> 100 µM
same,growth at 0.01 µM,[22],94%
same,TGI,[22],> 100 µM
same,GI50,[23],0.275 µM
same,LC50,[23],> 100 µM
same,growth at 0.01 µM,[23],93%
same,TGI,[23],0.891 µM
same,growth at 1 µM,[24],4%
same,growth at 10 µM,[25],27%
same,growth at 100 µM,[26],-93%
same,growth at 1 µM,[27],-12%
same,growth at 1 µM,[28],80%
same,GI50,[29],0.594 µM
same,TGI,[29],9.05 µM
same,CC50,[29],> 100 µM
same,GI50,[30],1.07 µM
same,growth at 0.01 µM,[30],78%
same,CC50,[30],5.5 µM
same,TGI,[30],2.4 µM
same,growth at 100 µM,[31],6%
same,growth at 1 µM,[32],-5%
Cc1ccc(S(=O)(=O)N2C/C(=C\c3cc(F)cc(F)c3)C(=O)/C(=C/c3cc(F)cc(F)c3)C2)cc1,growth at 0.1 µM,[1],110%
same,GI50,[2],2 µM
same,LC50,[2],14.8 µM
same,growth at 0.01 µM,[2],105%
same,TGI,[2],4.68 µM
same,GI50,[3],0.274 µM
same,TGI,[3],0.742 µM
same,CC50,[3],3.81 µM
same,growth at 1 µM,[4],82%
same,growth at 0.1 µM,[5],112%
same,GI50,[6],0.349 µM
same,TGI,[6],1.71 µM
same,CC50,[6],5.77 µM
same,growth at 0.1 µM,[7],100%
same,growth at 1 µM,[8],3%
same,GI50,[9],1.1 µM
same,LC50,[9],5.13 µM
same,growth at 0.01 µM,[9],91%
same,TGI,[9],2.34 µM
same,GI50,[10],1.23 µM
same,LC50,[10],7.59 µM
same,growth at 0.01 µM,[10],106%
same,TGI,[10],3.09 µM
same,GI50,[11],0.339 µM
same,LC50,[11],4.27 µM
same,growth at 0.01 µM,[11],95%
same,TGI,[11],1.32 µM
same,growth at 100 µM,[12],-57%
same,GI50,[13],8.62 µM
same,TGI,[13],39.6 µM
same,CC50,[13],> 100 µM
same,growth at 0.1 µM,[14],90%
same,GI50,[15],0.589 µM
same,LC50,[15],4.9 µM
same,growth at 0.01 µM,[15],104%
same,TGI,[15],1.91 µM
same,growth at 100 µM,[16],-96%
same,growth at 1 µM,[17],34%
same,growth at 1 µM,[18],44%
same,GI50,[19],1.97 µM
same,TGI,[19],4.66 µM
same,CC50,[19],14.8 µM
same,GI50,[20],0.427 µM
same,LC50,[20],14.5 µM
same,growth at 0.01 µM,[20],98%
same,TGI,[20],2.14 µM
same,growth at 0.1 µM,[21],91%
same,GI50,[22],0.933 µM
same,LC50,[22],8.51 µM
same,growth at 0.01 µM,[22],93%
same,TGI,[22],2.88 µM
same,GI50,[23],2.88 µM
same,LC50,[23],> 100 µM
same,growth at 0.01 µM,[23],94%
same,TGI,[23],14.8 µM
same,growth at 1 µM,[24],-45%
same,growth at 10 µM,[25],-57%
same,growth at 100 µM,[26],-95%
same,growth at 1 µM,[27],5%
same,growth at 1 µM,[28],51%
same,GI50,[29],0.299 µM
same,TGI,[29],2.11 µM
same,CC50,[29],> 100 µM
same,GI50,[30],0.724 µM
same,growth at 0.01 µM,[30],96%
same,CC50,[30],5.13 µM
same,TGI,[30],2.14 µM
same,growth at 100 µM,[31],-77%
same,growth at 1 µM,[32],86%

# Source: ChEMBL document CHEMBL3217615, “Novel 3,5-bis(arylidiene)-4-piperidone based monocarbonyl analogs of curcumin: anticancer activity evaluation and mode of action study” (2014)
